# What was measured:
# Format in all cases: in vivo
# [1] = test system: lambsquarters (Chenopodium album); experiment: Test B preemergence; conditions: scale 0 to 100, 0 no effect, 100 complete control
# Outline: (§1)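 Seeds were planted and sprayed preemergence with test chemical in a non-phytotoxic solvent mixture containing surfactant; postemergence plants (2 to 18 cm, 1- to 4-leaf stage) received the same formulation. Greenhouse hold 13 to 15 days, then visual rating versus untreated controls on a 0–100 scale (0 no effect, 100 complete control).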
# [2] = test system: pigweed (Amaranthus retroflexus); experiment: Test B preemergence; conditions: scale 0 to 100, 0 no effect, 100 complete control
# Outline: as §1
# [3] = test system: cocklebur (Xanthium strumarium); experiment: Test B preemergence; conditions: scale 0 to 100, 0 no effect, 100 complete control
# Outline: as §1
# [4] = test system: corn (Zea mays); experiment: Test B preemergence; conditions: scale 0 to 100, 0 no effect, 100 complete control
# Outline: as §1
# [5] = test system: barnyardgrass (Echinochloa crus-galli); experiment: Test B preemergence; conditions: scale 0 to 100, 0 no effect, 100 complete control
# Outline: as §1
# [6] = test system: rice (Oryza saliva); experiment: Test B preemergence; conditions: scale 0 to 100, 0 no effect, 100 complete control
# Outline: as §1
# [7] = test system: morning glory (Ipomoea hederacea); experiment: Test B preemergence; conditions: scale 0 to 100, 0 no effect, 100 complete control
# Outline: as §1
# [8] = test system: crabgrass (Digitaria sanguinalis); experiment: Test B preemergence; conditions: scale 0 to 100, 0 no effect, 100 complete control
# Outline: as §1
# [9] = test system: Surinam grass (Brachiaria decumbens); experiment: Test B preemergence; conditions: scale 0 to 100, 0 no effect, 100 complete control
# Outline: as §1
# [10] = test system: velvetleaf (Abutilon theophrasti); experiment: Test B preemergence; conditions: scale 0 to 100, 0 no effect, 100 complete control
# Outline: as §1
# [11] = test system: giant foxtail (Setaria faberii); experiment: Test B preemergence; conditions: scale 0 to 100, 0 no effect, 100 complete control
# Outline: as §1
# [12] = test system: lambsquarters (Chenopodium album); experiment: Test B postemergence; conditions: 13 to 15 days
# Outline: as §1
# [13] = test system: wheat (Triticum aestivum); experiment: Test B postemergence; conditions: 13 to 15 days
# Outline: as §1
# [14] = test system: cocklebur (Xanthium strumarium); experiment: Test B postemergence; conditions: 13 to 15 days
# Outline: as §1
# [15] = test system: blackgrass (Alopecurus myosuroides); experiment: Test B postemergence; conditions: 13 to 15 days
# Outline: as §1
# [16] = test system: corn (Zea mays); experiment: Test B postemergence; conditions: 13 to 15 days
# Outline: as §1
# [17] = test system: barnyardgrass (Echinochloa crus-galli); experiment: Test B postemergence; conditions: 13 to 15 days
# Outline: as §1
# [18] = test system: morning glory (Ipomoea hederacea); experiment: Test B postemergence; conditions: 13 to 15 days
# Outline: as §1
# [19] = test system: wild oat (Avena fatua); experiment: Test B postemergence; conditions: 13 to 15 days
# Outline: as §1
# [20] = test system: crabgrass (Digitaria sanguinalis); experiment: Test B postemergence; conditions: 13 to 15 days
# Outline: as §1
# [21] = test system: Surinam grass (Brachiaria decumbens); experiment: Test B postemergence; conditions: 13 to 15 days
# Outline: as §1
# [22] = test system: velvetleaf (Abutilon theophrasti); experiment: Test B postemergence; conditions: 13 to 15 days
# Outline: as §1
# [23] = test system: giant foxtail (Setaria faberii); experiment: Test B postemergence; conditions: 13 to 15 days
# Outline: as §1
# [24] = Rate 125 g/ha, scale 0 (no effect) to 100 (complete control)
# [25] = Rate 500 g/ha, scale 0 to 100, 0 is no effect, 100 is complete control
compound,measurement,setting,value
CCC(C)c1nn(C2CCN(c3cccc(C(F)(F)F)c3)C2=O)cc1Cl (centres unmarked) [Compound 13],"Plant response rating, Lambsquarters","[1]; Preemergence, Rate 500 g/ha",0
same,"Plant response rating, Lambsquarters","[1]; preemergence, Rate 125 g/ha",0
same,"Plant response rating, Pigweed","[2]; Preemergence, Rate 500 g/ha",0
same,"Plant response rating, Pigweed","[2]; preemergence, Rate 125 g/ha",0
same,"Plant response rating, Cocklebur","[3]; Preemergence, Rate 500 g/ha",0
same,"Plant response rating, Cocklebur","[3]; preemergence, Rate 125 g/ha",0
same,"Plant response rating, Corn","[4]; Preemergence, Rate 500 g/ha",0
same,"Plant response rating, Corn","[4]; preemergence, Rate 125 g/ha",0
same,"Plant response rating, Barnyardgrass","[5]; Preemergence, Rate 500 g/ha",0
same,"Plant response rating, Barnyardgrass","[5]; preemergence, Rate 125 g/ha",0
same,"Plant response rating, Rice","[6]; Preemergence, Rate 500 g/ha",0
same,"Plant response rating, Rice","[6]; preemergence, Rate 125 g/ha",0
same,"Plant response rating, Morningglory","[7]; Preemergence, Rate 500 g/ha",0
same,"Plant response rating, Morningglory","[7]; preemergence, Rate 125 g/ha",0
same,"Plant response rating, Crabgrass","[8]; Preemergence, Rate 500 g/ha",0
same,"Plant response rating, Crabgrass","[8]; preemergence, Rate 125 g/ha",0
same,"Plant response rating, Surinam grass","[9]; Preemergence, Rate 500 g/ha",0
same,"Plant response rating, Surinam grass","[9]; preemergence, Rate 125 g/ha",0
same,"Plant response rating, Velvetleaf","[10]; Preemergence, Rate 500 g/ha",0
same,"Plant response rating, Velvetleaf","[10]; preemergence, Rate 125 g/ha",0
same,"Plant response rating, Foxtail, Giant","[11]; Preemergence, Rate 500 g/ha",0
same,"Plant response rating, Foxtail, Giant","[11]; preemergence, Rate 125 g/ha",0
same,"Plant response rating, Lambsquarters",[12]; [24],0
same,"Plant response rating, Lambsquarters",[12]; [25],0
same,"Plant response rating, Wheat",[13]; [24],0
same,"Plant response rating, Wheat",[13]; [25],0
same,"Plant response rating, Cocklebur",[14]; [24],0
same,"Plant response rating, Cocklebur",[14]; [25],0
same,"Plant response rating, Blackgrass",[15]; [24],0
same,"Plant response rating, Blackgrass",[15]; [25],0
same,"Plant response rating, Corn",[16]; [24],0
same,"Plant response rating, Corn",[16]; [25],0
same,"Plant response rating, Barnyardgrass",[17]; [24],0
same,"Plant response rating, Barnyardgrass",[17]; [25],0
same,"Plant response rating, Morningglory",[18]; [24],0
same,"Plant response rating, Morningglory",[18]; [25],70
same,"Plant response rating, Wild Oat",[19]; [24],20
same,"Plant response rating, Wild Oat",[19]; [25],20
same,"Plant response rating, Crabgrass",[20]; [24],60
same,"Plant response rating, Crabgrass",[20]; [25],60
same,"Plant response rating, Surinam grass",[21]; [24],0
same,"Plant response rating, Surinam grass",[21]; [25],0
same,"Plant response rating, Velvetleaf",[22]; [24],0
same,"Plant response rating, Velvetleaf",[22]; [25],0
same,"Plant response rating, Foxtail, Giant",[23]; [24],0
same,"Plant response rating, Foxtail, Giant",[23]; [25],0
O=C1C(n2cccn2)CCN1c1cccc(C(F)(F)F)c1 (centres unmarked) [Compound 15],"Plant response rating, Lambsquarters","[1]; Preemergence, Rate 500 g/ha",60
same,"Plant response rating, Lambsquarters","[1]; preemergence, Rate 125 g/ha",0
same,"Plant response rating, Pigweed","[2]; Preemergence, Rate 500 g/ha",0
same,"Plant response rating, Pigweed","[2]; preemergence, Rate 125 g/ha",0
same,"Plant response rating, Cocklebur","[3]; Preemergence, Rate 500 g/ha",0
same,"Plant response rating, Cocklebur","[3]; preemergence, Rate 125 g/ha",0
same,"Plant response rating, Corn","[4]; Preemergence, Rate 500 g/ha",0
same,"Plant response rating, Corn","[4]; preemergence, Rate 125 g/ha",0
same,"Plant response rating, Barnyardgrass","[5]; Preemergence, Rate 500 g/ha",0
same,"Plant response rating, Barnyardgrass","[5]; preemergence, Rate 125 g/ha",0
same,"Plant response rating, Rice","[6]; Preemergence, Rate 500 g/ha",0
same,"Plant response rating, Rice","[6]; preemergence, Rate 125 g/ha",0
same,"Plant response rating, Morningglory","[7]; Preemergence, Rate 500 g/ha",30
same,"Plant response rating, Morningglory","[7]; preemergence, Rate 125 g/ha",0
same,"Plant response rating, Crabgrass","[8]; Preemergence, Rate 500 g/ha",0
same,"Plant response rating, Crabgrass","[8]; preemergence, Rate 125 g/ha",0
same,"Plant response rating, Surinam grass","[9]; Preemergence, Rate 500 g/ha",20
same,"Plant response rating, Surinam grass","[9]; preemergence, Rate 125 g/ha",0
same,"Plant response rating, Velvetleaf","[10]; Preemergence, Rate 500 g/ha",70
same,"Plant response rating, Velvetleaf","[10]; preemergence, Rate 125 g/ha",50
same,"Plant response rating, Foxtail, Giant","[11]; Preemergence, Rate 500 g/ha",0
same,"Plant response rating, Foxtail, Giant","[11]; preemergence, Rate 125 g/ha",0
same,"Plant response rating, Lambsquarters",[12]; [24],0
same,"Plant response rating, Lambsquarters",[12]; [25],0
same,"Plant response rating, Wheat",[13]; [24],0
same,"Plant response rating, Wheat",[13]; [25],0
same,"Plant response rating, Cocklebur",[14]; [24],0
same,"Plant response rating, Cocklebur",[14]; [25],0
same,"Plant response rating, Blackgrass",[15]; [24],0
same,"Plant response rating, Blackgrass",[15]; [25],30
same,"Plant response rating, Corn",[16]; [24],0
same,"Plant response rating, Corn",[16]; [25],0
same,"Plant response rating, Barnyardgrass",[17]; [24],0
same,"Plant response rating, Barnyardgrass",[17]; [25],0
same,"Plant response rating, Morningglory",[18]; [24],0
same,"Plant response rating, Morningglory",[18]; [25],0
same,"Plant response rating, Wild Oat",[19]; [24],0
same,"Plant response rating, Wild Oat",[19]; [25],50
same,"Plant response rating, Crabgrass",[20]; [24],20
same,"Plant response rating, Crabgrass",[20]; [25],50
same,"Plant response rating, Surinam grass",[21]; [24],0
same,"Plant response rating, Surinam grass",[21]; [25],0
same,"Plant response rating, Velvetleaf",[22]; [24],0
same,"Plant response rating, Velvetleaf",[22]; [25],0
same,"Plant response rating, Foxtail, Giant",[23]; [24],0
same,"Plant response rating, Foxtail, Giant",[23]; [25],30

# Reference: patent publication US7138361B2, “Herbicidal heterocycles” (E. I. du Pont de Nemours and Company, priority 2000, dated 2006)
